The source of these data is ChEMBL document CHEMBL1833945, “Synthesis and anticonvulsant activity of new N-Mannich bases derived from 5-cyclopropyl-5-phenyl- and 5-cyclopropyl-5-(4-chlorophenyl)-imidazolidine-2,4-diones” (Bioorg Med Chem, 2011).

The test system of data set [1] is Mus musculus. Briefly: Neurotoxicity in ip dosed CF1 albino mouse assessed as minimum dose required to cause impair in motor coordination after 4 hrs by rotarod test. Format: toxicity, organism-based. Conditions: in vivo.
Data set [2] in a line: Lipophilicity, log P of compound. It counts as physicochemical. Conditions: octanol/water.
Data set [3] concerns Mus musculus. Nature of the data set: Neurotoxicity in ip dosed CF1 albino mouse assessed as minimum dose required to cause impair in motor coordination after 0.5 hrs by rotarod test. Format: toxicity, organism-based. As to conditions: in vivo. (In general: In the rotarod test animals must keep their balance on a rotating rod.)
The subject of data set [4] is Mus musculus. Briefly: Anticonvulsant activity in ip dosed CF1 albino mouse assessed as protection against maximal electroshock-induced seizures after 4 hrs. As to conditions: read-out: MED. Format: functional.
In data set [5] the test system is Mus musculus. Nature of the data set: Anticonvulsant activity in CF1 albino mouse assessed as protection against subcutaneous pentylenetetrazole-induced seizures at 300 mg/kg, […] after 4 hrs. Format: functional, organism-based. Also on record: dose 300 mg/kg.
The subject of data set [6] is Mus musculus. Nature of the data set: Anticonvulsant activity in CF1 albino mouse assessed as protection against maximal electroshock-induced seizures at 300 mg/kg, ip after 0.5 hrs. It counts as functional, organism-based. Also on record: dose 300 mg/kg. A general note: In the maximal electroshock model the usual endpoint is tonic extension of the hind limbs.
For data set [7], the system named is Mus musculus. Nature of the data set: Neurotoxicity in CF1 albino mouse assessed as impair in motor coordination at 300 mg/kg, ip after 4 hrs by rotarod test. Also on record: dose 300 mg/kg, route intraperitoneal. As to conditions: in vivo. Format: toxicity, organism-based.
In data set [8] the test system is Mus musculus. Nature of the data set: Neurotoxicity in CF1 albino mouse assessed as impair in motor coordination at 300 mg/kg, ip after 0.5 hrs by rotarod test. Conditions: in vivo. Format: toxicity, organism-based. Also on record: dose 300 mg/kg, route intraperitoneal.
For data set [9], the system named is Mus musculus. Briefly: Anticonvulsant activity in ip dosed CF1 albino mouse assessed as protection against maximal electroshock-induced seizures after 0.5 hrs. It counts as functional. As to conditions: read-out: MED.
Data set [10] relates to Mus musculus. Briefly: Neurotoxicity in CF1 albino mouse assessed as loss of rotard grasping at 300 mg/kg, ip after 0.5 hrs by rotarod test. Format: toxicity, organism-based. Also on record: dose 300 mg/kg, route intraperitoneal. As to conditions: in vivo.
The subject of data set [11] is Rattus norvegicus. Briefly: Neurotoxicity in Sprague-Dawley albino rat assessed as motor impairment at 30 mg/kg, po after 4 hrs by rotarod test. Format: toxicity, organism-based. Also on record: dose 30 mg/kg, route oral. Conditions: in vivo.
In data set [12] the test system is Rattus norvegicus. Briefly: Neurotoxicity in Sprague-Dawley albino rat assessed as motor impairment at 30 mg/kg, po after 1 hrs by rotarod test. It counts as toxicity, organism-based. Also on record: dose 30 mg/kg, route oral. Conditions: in vivo.
Data set [13] concerns Rattus norvegicus. Nature of the data set: Anticonvulsant activity in po dosed Sprague-Dawley albino rat assessed as time to peak effect. Format: functional.
A short description of data set [14]: Neurotoxicity in oral dosed Sprague-Dawley albino rat assessed as motor impairment by rotarod test. Format: toxicity, organism-based. Conditions: in vivo.
Data set [15] has as its system Rattus norvegicus. Nature of the data set: Anticonvulsant activity in Sprague-Dawley albino rat assessed as protection against maximal electroshock-induced seizures at 30 mg/kg, po after 0.5 hrs. Also on record: dose 30 mg/kg. Format: functional, organism-based.
Data set [16] concerns Rattus norvegicus. Nature of the data set: Neurotoxicity in Sprague-Dawley albino rat assessed as motor impairment at 30 mg/kg, po after 0.25 hrs by rotarod test. Conditions: in vivo. Also on record: dose 30 mg/kg, route oral. Format: toxicity, organism-based.
Data set [17] has as its system Rattus norvegicus. Briefly: Anticonvulsant activity in po dosed Sprague-Dawley albino rat assessed as protection against subcutaneous pentylenetetrazole-induced seizures. Format: functional.
Data set [18] concerns Rattus norvegicus. Nature of the data set: Neurotoxicity in Sprague-Dawley albino rat assessed as motor impairment at 30 mg/kg, po after 0.5 hrs by rotarod test. It counts as toxicity, organism-based. Also on record: dose 30 mg/kg, route oral. As to conditions: in vivo.
In data set [19] the test system is Rattus norvegicus. Briefly: Neurotoxicity in Sprague-Dawley albino rat assessed as motor impairment at 30 mg/kg, po after 2 hrs by rotarod test. It counts as toxicity, organism-based. Also on record: dose 30 mg/kg, route oral. As to conditions: in vivo.
The species named for data set [20] is Rattus norvegicus. Nature of the data set: Protective index, ratio of TD50 for neurotoxicity in Sprague-Dawley albino rat to ED50 for inhibition of maximal electroshock-induced seizures in Sprague-Dawley albino rat. It counts as functional.
The test system of data set [21] is Mus musculus. Nature of the data set: Toxicity in subcutaneous pentylenetetrazole-induced CF1 albino mouse assessed as myoclonic jerks at 300 mg/kg, ip after 4 hrs. It counts as organism-based. Also on record: dose 300 mg/kg. As to conditions: in vivo, sc.
Data set [22] relates to Rattus norvegicus. Briefly: Anticonvulsant activity in Sprague-Dawley albino rat assessed as protection against maximal electroshock-induced seizures at 30 mg/kg, po after 0.25 hrs. Format: functional, organism-based. Also on record: dose 30 mg/kg.
The subject of data set [23] is Rattus norvegicus. Nature of the data set: Anticonvulsant activity in Sprague-Dawley albino rat assessed as protection against maximal electroshock-induced seizures at 30 mg/kg, po after 4 hrs. It counts as functional, organism-based. Also on record: dose 30 mg/kg.
The subject of data set [24] is Mus musculus. Briefly: Anticonvulsant activity in ip dosed CF1 albino mouse assessed as protection against subcutaneous pentylenetetrazole-induced seizures after 0.5 hrs. It counts as functional. Conditions: read-out: MED.
The test system of data set [25] is Rattus norvegicus. Nature of the data set: Neurotoxicity in Sprague-Dawley albino rat assessed as motor impairment at 50 mg/kg, po after 0.25 hrs by rotarod test. Also on record: dose 50 mg/kg, route oral. Conditions: in vivo. It counts as toxicity, organism-based.
The subject of data set [26] is Rattus norvegicus. Briefly: Neurotoxicity in Sprague-Dawley albino rat assessed as motor impairment at 50 mg/kg, po after 4 hrs by rotarod test. As to conditions: in vivo. Format: toxicity, organism-based. Also on record: dose 50 mg/kg, route oral.
In data set [27] the test system is Rattus norvegicus. Briefly: Neurotoxicity in Sprague-Dawley albino rat assessed as motor impairment at 50 mg/kg, po after 0.5 hrs by rotarod test. It counts as toxicity, organism-based. Also on record: dose 50 mg/kg, route oral. As to conditions: in vivo.
Data set [28] deals with Mus musculus. Nature of the data set: Anticonvulsant activity in CF1 albino mouse assessed as protection against electrically-induced seizure at 100 mg/kg, ip after 0.5 hrs by 6Hz psychomotor seizure test. It counts as functional, organism-based. Also on record: dose 100 mg/kg.
Data set [29] has as its system Mus musculus. Nature of the data set: Anticonvulsant activity in CF1 albino mouse assessed as protection against electrically-induced seizure at 100 mg/kg, ip after 0.25 hrs by 6Hz psychomotor seizure test. Also on record: dose 100 mg/kg. It counts as functional, organism-based.
Data set [30] relates to Mus musculus. Briefly: Anticonvulsant activity in ip dosed CF1 albino mouse assessed as protection against subcutaneous pentylenetetrazole-induced seizures after 4 hrs. It counts as functional. Conditions: read-out: MED.
For data set [31], the system named is Rattus norvegicus. Briefly: Anticonvulsant activity in Sprague-Dawley albino rat assessed as protection against subcutaneous pentylenetetrazole-induced seizures at 50 mg/kg, po after 0.25 hrs. It counts as functional, organism-based. Also on record: dose 50 mg/kg.
The test system of data set [32] is Rattus norvegicus. Briefly: Neurotoxicity in Sprague-Dawley albino rat assessed as motor impairment at 50 mg/kg, po after 1 hrs by rotarod test. It counts as toxicity, organism-based. Also on record: dose 50 mg/kg, route oral. Conditions: in vivo.
Data set [33] deals with Rattus norvegicus. Nature of the data set: Neurotoxicity in Sprague-Dawley albino rat assessed as motor impairment at 50 mg/kg, po after 2 hrs by rotarod test. It counts as toxicity, organism-based. As to conditions: in vivo. Also on record: dose 50 mg/kg, route oral.

The source made the active and inactive calls. No cut-off for these calls is given here.

As to `O=C(OCc1ccccc1)N1CCN(CN2C(=O)NC(c3ccc(Cl)cc3)(C3CC3)C2=O)CC1` (stereo not given), the MTC in data set [1] and in data set [3] was 300 mg/kg in each case. Besides, the log partition coefficient (logP) in data set [2] was 3.65. In data set [4], the minimal effective dose stood at 100 mg/kg. Also, the result in data set [5] and in [6] was inactive.
Turning to `O=C1NC(c2ccc(Cl)cc2)(C2CC2)C(=O)N1CN1CCN(c2ccccc2F)CC1` (stereo not given), the minimal effective dose in data set [4] was 300 mg/kg. For the same compound, the result in data set [5] and in [6] was inactive. Also, the Activity entry in [7] and in data set [8] was “Non-toxic” throughout.
`CC(c1ccccc1)N1CCN(CN2C(=O)NC(c3ccc(Cl)cc3)(C3CC3)C2=O)CC1` (stereo not given): the log partition coefficient (logP) in [2] was found to be 3.9. Further, the minimal effective dose in data set [9] and in data set [4] was 300 mg/kg in each case. In addition, the Activity entry is recorded as “Toxic” in data set [10] and “Non-toxic” in data set [7]. Besides, the result in [5] was inactive.
Turning to `O=C1NC(=O)C(c2ccccc2)(c2ccccc2)N1` [PHENYTOIN], the Activity entry in data set [11], in data set [12], in data set [16], in [18] and in data set [19] was “Non-toxic” in each case. In addition, the Time in data set [13] stood at 1 h. In addition, the TD50 in data set [14] was more than 1000 mg/kg. For the same compound, the MTC in data set [1] and in data set [3] was 100 mg/kg in each case. Besides, the minimal effective dose in [9] and in data set [4] was 30 mg/kg throughout. Also, the outcome in [15] was Active. Moreover, in [17], the median effective dose (ED50) was more than 500 mg/kg. The outcome in data set [5] was inactive. In addition, the PI in [20] is recorded as more than 35.58.
For `O=C1NC(c2ccccc2)(C2CC2)C(=O)N1CN1CCc2ccccc2C1` (stereo not given), the Activity result in data set [21] is “Toxic”; in data set [11], “Non-toxic”; in data set [12], “Non-toxic”; in data set [16] it was “Non-toxic”; in data set [18], “Non-toxic”; in [19] it was “Non-toxic”. In [7], the Activity entry is given as “Non-toxic”. For the same compound, the outcome in data set [22] and in data set [15] was inactive. In addition, the logP in data set [2] came to 3.02. The minimal effective dose in [9] and in data set [4] was 300 mg/kg in each case. In data set [23], the outcome was Active. Further, the MTC in [3] came out at 100 mg/kg.
Turning to `O=C1NC(c2ccccc2)(C2CC2)C(=O)N1CN1CCN(c2ccccc2)CC1` (stereo not given), the minimal effective dose in data set [24] and in data set [4] was 100 mg/kg in each case. Besides, the outcome in [5] and in data set [6] was inactive. Also, the Activity entry in data set [7] and in data set [8] was “Non-toxic” each time.
For the compound `O=C1NC(=O)C(c2ccc(Cl)cc2)(C2CC2)N1` (stereo not given), the Time in [13] came out at 2 h. Moreover, the Activity result in data set [25], in data set [26], in data set [27], in data set [32], in data set [8] and in data set [33] was “Non-toxic” in each case. The TD50 in data set [14] is more than 135 mg/kg. For the same compound, the MTC in data set [1] turned out to be 300 mg/kg. Further, the logP in data set [2] was determined as 2.63. In addition, the result in data set [28], in data set [29], in data set [31] and in [6] was inactive. In addition, in data set [17], the median effective dose (ED50) stood at 85 mg/kg. In addition, the minimal effective dose is 30 mg/kg in data set [30], 300 mg/kg in [24] and 300 mg/kg in data set [4].

Usually logP stands for a log measure of how a compound divides between an organic and an aqueous phase. As a reminder, the TD50 is the dose at which the toxic effect under study appears in half of the subjects. Broadly, the ED50 is the midpoint of the dose-response relation.
